Here are results for 3 molecules from patent publication US20250019772A1, “Method and System of Augmenting Cancer Therapy” (UNIVERSITY OF MIAMI, priority 2023, published 2025).

For data set [1], the system named is CD11+ BMDC's. Kind of data set: Phagocytosis of irradiated MEFs treated with autophagy inhibitors by BMDC's (qPCR IFNβ1, Cxcl10). Conditions: BafA1 50 nM; 3-MA 2.5 mM. The format is cell-based, mouse. For orientation: Quantitative PCR measures a nucleic acid by following its amplification.
Data set [2] deals with DNase II. Kind of data set: Nuclease protection assay of Ccl5-DNA complex. Conditions: 1 unit DNase II, 37° C., 20 mins. The format is biochemical.
The subject of data set [3] is ISD (dsDNA). Kind of data set: Binding of CCL5 to DNA (Picogreen, EMSA). The settings on record: ISD 10 μg/mL. The source says:
SIEVES were isolated from irradiated (X-ray at 50 Gy for 3 days) WT, SKO, or CCL5 MEFs as well as B16-WT, B16-SKO or B16-CCL5KO cells by centrifugation. (A) Immunoblot analysis of centrifuged fractions using antibodies to STING, CD81, LC3, and Lamin A/C. (B) Size distribution evaluation of endosomal vesicles isolated from B16-WT. B16-SKO, and B16-CCL5 KO cells following irradiation with X-rays at 50 Gy. (C) Evaluation of number of endosomal vesicles in (B). (D) Immunoblotting analysis of endosomal/exosomal markers in endosomal vesicles in (B). (E) cGAMP ELISA analysis of WT DC. SKO DC, and CKO BMDC's treated with 30 μg of SIEVE's isolated from MEF WT, MEF SKO, MEF CKO or MEF CCL5 KO. (F) qPCR analysis of Cxcl10 in WT DC treated with SIEVE's from (E). […] (G) Tumor volumes were measured every other day for 2 weeks. […]
(B) B16-WT. […] DNA was purified with phenol-chloroform and CCL5 bound ISD was analyzed by qPCR analysis. (C) DNA in SIEVE's isolated from MEF-WT, SKO and CCL5 KO with or without X-ray at 50 Gy were measured by Nanodrop, Picogreen staining and visualized by agarose gel electrophoresis and dot blot analysis, according to an embodiment of the present invention; and
ISD90 was premixed with CCL5 and negative control molecules at different concentration in 100 μL and analyzed by a fluorimeter after staining with Picogreen. […]
Background: Mobility shift assays separate free from complexed probe on a gel.

In data set [4] the test system is WT macrophages (WTØ). Kind of data set: Phagocytosis of irradiated cells by WT macrophages (WTØ), Cxcl10 qPCR, with CCL5, CCL5 antibody or CCR inhibitors. The format is cell-based, mouse. Conditions: exogenously added recombinant CCL5 100 ng/mL 2 h, irradiated B16 cells 50 Gy. The method, then:
(B) B16-WT or B16-SKO cells were irradiated using X-rays at 50 Gy for 3 days. 50 μL of the conditioned media from the cells was added to WTØ followed by adding the irradiated B16-WT and B16-SKO cells with the treated APC's for phagocytosis analysis. qPCR analysis was performed for Cxcl10 expression. (C) qPCR analysis of Cxcl10 in WTØ following the phagocytosis of irradiated MEF-WT cells in the presence of CCL5 antibody or IgG control (1 μg) at 100 ng/mL for 2 h prior to the phagocytosis. (D) MEF-WT cells were treated with a cocktail of 100 nM CCR inhibitors (Bx471, SB297006, AZD2098 and Maraviroc). The MEF-WT cells treated with the inhibitors (CCRi) were fed to WTØ for 6 h and Cxcl10 expression examined. (E) MEF WT, SKO or CCL5 KO were transfected with 3 μg/mL ISD for 6 h followed by measuring Ifnβ1, Cxcl10 or Ccl5 expression by qPCR analysis. (F) MEF WT, SKO or CCL5 KO were transfected with 3 μg/mL ISD for 6 h and then examined for STING activity by immunoblotting analysis. […] Immunofluorescence to detect STING translocation was monitored by confocal microscope, according to an embodiment of the present invention; […]
Macrophages were washed with 0.02% EDTA/PBS twice followed by incubation with 0.02% EDTA/PBS at 37C incubator for 10 mins. […] Percentage of phagocytosed cells were assessed by flow cytometry using a LSRII instrument (Becton Dickinson, USA).

Turning to `Cn1cnc(N)c2ncnc1-2` [3-MA, 3-Methyladenine], the “immunogenicity of irradiated MEF cells (ability to activate APC's)” value in data set [1] is on record as “suppressed the immunogenicity”.

For `CO/C1=C\C(C)=C\[C@@H](C)[C@@H](O)[C@@H](C)C/C(C)=C/C=C/[C@H](OC)[C@@H]([C@@H](C)[C@@H](O)[C@H](C)[C@@]2(O)C[C@@H](O)[C@H](C)[C@@H](C(C)C)O2)OC1=O` [BafA1, bafilomycin A1], the “immunogenicity of irradiated MEF cells (ability to activate APC's)” value in data set [1] is given as “suppressed the immunogenicity”.

For the molecule “Ccl5: recombinant CCL5 protein, exogenously added chemokine”, the “protection against DNA degradation by DNaseII” value in data set [2] is listed as “conferred protection against DNA degradation”. For the same molecule, the “association of Ccl5 with DNA” value in data set [3] is “associated with”. Besides, the “rescue of immunogenicity of Ccl5 KO or STING KO cells” value in data set [4] is “did not appear to significantly rescue the immunogenicity”.
